Results as given in US20260132132A1, “3A,4,5,6-TETRAHYDRO-1 H-PYRAZOLO[3,4-C]PYRIDIN-7(7AH)-ONE DERIVATIVES AS FACTOR XIIA INHIBITORS” (KALVISTA PHARMACEUTICALS LIMITED, priority 2022, published 2026).

Each molecule was assayed against T1, Human Factor XIIa (hFXIIa) (Homo sapiens, UniProt P00748) (assay: Determination of Human Factor XIIa (hFXIIa) inhibition, fluorogenic substrate IC50 assay). Settings: fluorogenic substrate H-DPro-Phe-Arg-AFC at Km, 25° C., read-out: Human FXIIa IC50.
T1 construct: purchased Enzyme Research Laboratories
T1 sequence (P00748 373-615 limits assumed): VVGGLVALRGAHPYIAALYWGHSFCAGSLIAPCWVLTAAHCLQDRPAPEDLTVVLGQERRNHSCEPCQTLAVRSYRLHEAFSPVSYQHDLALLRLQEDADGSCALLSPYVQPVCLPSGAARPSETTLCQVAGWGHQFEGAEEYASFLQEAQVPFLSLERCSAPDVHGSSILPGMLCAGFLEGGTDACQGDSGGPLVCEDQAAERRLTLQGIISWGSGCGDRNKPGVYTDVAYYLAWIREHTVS
T1 sequence (P00748 20-372 partner limits assumed): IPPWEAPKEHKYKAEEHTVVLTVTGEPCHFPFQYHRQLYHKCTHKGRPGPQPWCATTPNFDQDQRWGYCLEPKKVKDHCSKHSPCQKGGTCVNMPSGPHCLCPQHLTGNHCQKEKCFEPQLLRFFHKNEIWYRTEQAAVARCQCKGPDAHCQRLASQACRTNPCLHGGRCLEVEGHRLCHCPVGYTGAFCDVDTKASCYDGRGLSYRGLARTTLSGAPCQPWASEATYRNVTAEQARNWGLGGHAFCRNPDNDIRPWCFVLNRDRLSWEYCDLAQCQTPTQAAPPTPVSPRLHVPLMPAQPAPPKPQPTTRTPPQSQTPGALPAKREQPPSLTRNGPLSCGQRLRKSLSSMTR
Type: biochemical
Experimental: Determination of Human Factor XIIa (hFXIIa) inhibition
The Km for the cleavage of the substrate by hFXIIa was determined by standard transformation of the Michaelis-Menten equation, with subsequent inhibition assays performed at substrate Km concentration.

Row | Compound | IC50 [nM]
1 | O=C(NCC1CC1)c1nn(-c2cccc(Cl)c2)c2c1CCN(c1ccc3c(c1)CN(C1CCOC1)CC3)C2=O (stereo not shown) [Example 1115, 1-(3-chlorophenyl)-N-(cyclopropylmethyl)-7-oxo-6-(2-(tetrahydrofuran-3-yl)-1,2,3,4-tetrahydroisoquinolin-7-yl)-4,5,6,7-tetrahydro-1H-pyrazolo[3,4-c]pyridine-3-carboxamide] | 300 to 1000
2 | O=C(NCC1CC1)c1nn(-c2cccc(Cl)c2)c2c1CCN(c1ccc3c(c1)CN(CC1CCOC1)CC3)C2=O (stereo not shown) [Example 1116, 1-(3-chlorophenyl)-N-(cyclopropylmethyl)-7-oxo-6-(2-((tetrahydrofuran-3-yl)methyl)-1,2,3,4-tetrahydroisoquinolin-7-yl)-4,5,6,7-tetrahydro-1H-pyrazolo[3,4-c]pyridine-3-carboxamide] | 300 to 1000
3 | O=C(NCC1CC1)c1nn(-c2cccc(Cl)c2)c2c1CCN(c1ccc3c(c1)CN(C1CCCC1O)CC3)C2=O (stereo not shown) [Example 1119, 1-(3-chlorophenyl)-N-(cyclopropylmethyl)-6-(2-(2-hydroxycyclopentyl)-1,2,3,4-tetrahydroisoquinolin-7-yl)-7-oxo-4,5,6,7-tetrahydro-1H-pyrazolo[3,4-c]pyridine-3-carboxamide] | 300 to 1000
4 | O=C1CC[C@H](CN2CCc3ccc(N4CCc5c(C(=O)NCC6CC6)nn(-c6cccc(Cl)c6)c5C4=O)cc3C2)N1 [Example 1120, (R)-1-(3-chlorophenyl)-N-(cyclopropylmethyl)-7-oxo-6-(2-((5-oxopyrrolidin-2-yl)methyl)-1,2,3,4-tetrahydroisoquinolin-7-yl)-4,5,6,7-tetrahydro-1H-pyrazolo[3,4-c]pyridine-3-carboxamide] | 300 to 1000
5 | O=C1CC[C@@H](CN2CCc3ccc(N4CCc5c(C(=O)NCC6CC6)nn(-c6cccc(Cl)c6)c5C4=O)cc3C2)N1 [Example 1124, (S)-1-(3-chlorophenyl)-N-(cyclopropylmethyl)-7-oxo-6-(2-((5-oxopyrrolidin-2-yl)methyl)-1,2,3,4-tetrahydroisoquinolin-7-yl)-4,5,6,7-tetrahydro-1H-pyrazolo[3,4-c]pyridine-3-carboxamide] | 300 to 1000
6 | Cn1cc(CNC(=O)c2nn(-c3cccc(Cl)c3)c3c2CCN(c2ccc4c(c2)CN(CCO)CC4)C3=O)cn1 [Example 1133, 1-(3-chlorophenyl)-6-(2-(2-hydroxyethyl)-1,2,3,4-tetrahydroisoquinolin-7-yl)-N-((1-methyl-1H-pyrazol-4-yl)methyl)-7-oxo-4,5,6,7-tetrahydro-1H-pyrazolo[3,4-c]pyridine-3-carboxamide] | 100 to 300
7 | CC1(C)OCCC1NC(=O)c1nn(-c2cccc(Cl)c2)c2c1CCN(c1cccc(CN3CCCCC3)c1)C2=O (stereo not shown) [Example 1164, 1-(3-chlorophenyl)-N-(2,2-dimethyltetrahydrofuran-3-yl)-7-oxo-6-(3-(piperidin-1-ylmethyl)phenyl)-4,5,6,7-tetrahydro-1H-pyrazolo[3,4-c]pyridine-3-carboxamide] | 300 to 1000
8 | O=C(NCc1cnoc1)c1nn(-c2cccc(Cl)c2)c2c1CCN(c1ccc3c(c1)CN(CCO)CC3)C2=O [Example 1167, 1-(3-chlorophenyl)-6-(2-(2-hydroxyethyl)-1,2,3,4-tetrahydroisoquinolin-7-yl)-N-(isoxazol-4-ylmethyl)-7-oxo-4,5,6,7-tetrahydro-1H-pyrazolo[3,4-c]pyridine-3-carboxamide] | 100 to 300
9 | CCN1CCc2c(COC)cc(N3CCc4c(C(=O)NCC5CC5)nn(-c5cccc(Cl)c5)c4C3=O)cc2C1 [Example 1169, 1-(3-Chlorophenyl)-N-(cyclopropylmethyl)-6-(2-ethyl-5-(methoxymethyl)-1,2,3,4-tetrahydroisoquinolin-7-yl)-7-oxo-4,5,6,7-tetrahydro-1H-pyrazolo[3,4-c]pyridine-3-carboxamide] | 100 to 300
10 | COc1ccc(CNC(=O)c2nn(-c3cccc(Cl)c3)c3c2CCN(c2cccc(CN4CCCCC4)c2)C3=O)cn1 [Example 1173, 1-(3-chlorophenyl)-N-((6-methoxypyridin-3-yl)methyl)-7-oxo-6-(3-(piperidin-1-ylmethyl)phenyl)-4,5,6,7-tetrahydro-1H-pyrazolo[3,4-c]pyridine-3-carboxamide] | 100 to 300
11 | O=C(NCc1cnccc1Cl)c1nn(-c2cccc(Cl)c2)c2c1CCN(c1cccc(CN3CCCCC3)c1)C2=O [Example 1174, 1-(3-chlorophenyl)-N-((4-chloropyridin-3-yl)methyl)-7-oxo-6-(3-(piperidin-1-ylmethyl)phenyl)-4,5,6,7-tetrahydro-1H-pyrazolo[3,4-c]pyridine-3-carboxamide] | 100 to 300
12 | O=C(NCC1CC1)c1nn(-c2cccc(Cl)c2)c2c1CCN(c1ccc3c(c1)CN(CCF)CC3)C2=O [Example 1175, 1-(3-chlorophenyl)-N-(cyclopropylmethyl)-6-(2-(2-fluoroethyl)-1,2,3,4-tetrahydroisoquinolin-7-yl)-7-oxo-4,5,6,7-tetrahydro-1H-pyrazolo[3,4-c]pyridine-3-carboxamide] | 100 to 300
13 | Cc1cn(C)nc1CNC(=O)c1nn(-c2cccc(Cl)c2)c2c1CCN(c1cccc(CN3CCCCC3)c1)C2=O [Example 1178, 1-(3-chlorophenyl)-N-((1,4-dimethyl-1H-pyrazol-3-yl)methyl)-7-oxo-6-(3-(piperidin-1-ylmethyl)phenyl)-4,5,6,7-tetrahydro-1H-pyrazolo[3,4-c]pyridine-3-carboxamide] | 100 to 300
14 | CN1CCc2ccc(N3CCc4c(C(=O)O)nn(-c5cccc(Cl)c5)c4C3=O)cc2C1=O [Example 1182, 1-(3-chlorophenyl)-6-(2-methyl-1-oxo-1,2,3,4-tetrahydroisoquinolin-7-yl)-7-oxo-4,5,6,7-tetrahydro-1H-pyrazolo[3,4-c]pyridine-3-carboxylic acid] | 3000 to 10000

Results, then the molecule that gave them:

Row | IC50 [nM] | Compound
15 | 100 to 300 | C[C@H](NC(=O)c1nn(-c2cccc(Cl)c2)c2c1CCN(c1ccc3c(c1)CN(CCO)CC3)C2=O)c1cccnc1 [Example 1131, (S)-1-(3-chlorophenyl)-6-(2-(2-hydroxyethyl)-1,2,3,4-tetrahydroisoquinolin-7-yl)-7-oxo-N-(1-(pyridin-3-yl)ethyl)-4,5,6,7-tetrahydro-1H-pyrazolo[3,4-c]pyridine-3-carboxamide]
16 | 10 to 100 | Cc1cccnc1CNC(=O)c1nn(-c2cccc(Cl)c2)c2c1CCN(c1ccc3c(c1)CN(CCO)CC3)C2=O [Example 1136, 1-(3-chlorophenyl)-6-(2-(2-hydroxyethyl)-1,2,3,4-tetrahydroisoquinolin-7-yl)-N-((3-methylpyridin-2-yl)methyl)-7-oxo-4,5,6,7-tetrahydro-1H-pyrazolo[3,4-c]pyridine-3-carboxamide]
17 | 10 to 100 | Cc1cnccc1CNC(=O)c1nn(-c2cccc(Cl)c2)c2c1CCN(c1ccc3c(c1)CN(CCO)CC3)C2=O [Example 1163, 1-(3-chlorophenyl)-6-(2-(2-hydroxyethyl)-1,2,3,4-tetrahydroisoquinolin-7-yl)-N-((3-methylpyridin-4-yl)methyl)-7-oxo-4,5,6,7-tetrahydro-1H-pyrazolo[3,4-c]pyridine-3-carboxamide]
18 | 10 to 100 | Cc1cc(CNC(=O)c2nn(-c3cccc(Cl)c3)c3c2CCN(c2ccc4c(c2)CN(CCO)CC4)C3=O)nn1C [Example 1166, 1-(3-chlorophenyl)-N-((1,5-dimethyl-1H-pyrazol-3-yl)methyl)-6-(2-(2-hydroxyethyl)-1,2,3,4-tetrahydroisoquinolin-7-yl)-7-oxo-4,5,6,7-tetrahydro-1H-pyrazolo[3,4-c]pyridine-3-carboxamide]
19 | 10 to 100 | Cc1cc(CNC(=O)c2nn(-c3cccc(Cl)c3)c3c2CCN(c2cccc(CN4CCCCC4)c2)C3=O)[nH]n1 [Example 1168, 1-(3-chlorophenyl)-N-((3-methyl-1H-pyrazol-5-yl)methyl)-7-oxo-6-(3-(piperidin-1-ylmethyl)phenyl)-4,5,6,7-tetrahydro-1H-pyrazolo[3,4-c]pyridine-3-carboxamide]
20 | 10 to 100 | O=C(NCc1ncccc1Cl)c1nn(-c2cccc(Cl)c2)c2c1CCN(c1ccc3c(c1)CN(CCO)CC3)C2=O [Example 1170, 1-(3-chlorophenyl)-N-((3-chloropyridin-2-yl)methyl)-6-(2-(2-hydroxyethyl)-1,2,3,4-tetrahydroisoquinolin-7-yl)-7-oxo-4,5,6,7-tetrahydro-1H-pyrazolo[3,4-c]pyridine-3-carboxamide]
21 | 10 to 100 | Cc1cc(CNC(=O)c2nn(-c3cccc(Cl)c3)c3c2CCN(c2ccc4c(c2)CN(CCO)CC4)C3=O)ccn1 [Example 1171, 1-(3-chlorophenyl)-6-(2-(2-hydroxyethyl)-1,2,3,4-tetrahydroisoquinolin-7-yl)-N-((2-methylpyridin-4-yl)methyl)-7-oxo-4,5,6,7-tetrahydro-1H-pyrazolo[3,4-c]pyridine-3-carboxamide]
22 | 10 to 100 | COc1cnccc1CNC(=O)c1nn(-c2cccc(Cl)c2)c2c1CCN(c1ccc3c(c1)CN(CCO)CC3)C2=O [Example 1172, 1-(3-chlorophenyl)-6-(2-(2-hydroxyethyl)-1,2,3,4-tetrahydroisoquinolin-7-yl)-N-((3-methoxypyridin-4-yl)methyl)-7-oxo-4,5,6,7-tetrahydro-1H-pyrazolo[3,4-c]pyridine-3-carboxamide]
